Laboratory results reported in patent publication US9801831B2, “Device for controlled release of a bioactive agent” (Nanyang Technological University, priority 2010, dated 2017).
Values after ≈ are worked out from the molar mass of the structure shown.

Assay: Solubility limit of paclitaxel in release buffer
Assay type: physicochemical
Conditions: PBS/2% Tween-80 release buffer, pH 7.4, aqueous with cosolvent or surfactant or cyclodextrin
Procedure: The in-vitro release of paclitaxel was conducted in 2 mL of PBS/% Tween 80 release buffer (pH 7.4) at 37° C. using 6 mm punch-outs (1 punch-out/well) in triplicate. At predetermined time-points 2 mL of buffer was removed and another 2 mL replaced with PBS/Tween 80 release buffer, maintaining sink conditions throughout the release. Withdrawn aliquots (or standards/dissolutions samples) were filtered through a 0.2 μm PTFE syringe filter directly into HPLC vials and immediately capped. Paclitaxel was quantified with an Agilent Series 1100 HPLC (Santa Clara, Calif., USA) equipped with UV/Vis detector, autosampler, and column heater set to 35° C. A ZORBAX Eclipse XDB-C18 (5 μm) column of acetonitrile/water 60/40 (v/v) served as the mobile buffer, eluting the paclitaxel peak at ˜5.4 minutes with a flow rate 1.0 mL/min and the UV/Vis detector recording at 227 nm. A total dissolution study of the 6 mm discs in triplicate was conducted by dissolving the films in acetone and diluting in release buffer to determine the surface concentration of paclitaxel (μg/mm^2).

CC(=O)O[C@H]1C(=O)[C@@]2(C)[C@H]([C@H](OC(=O)c3ccccc3)[C@]3(O)C[C@H](OC(=O)[C@H](O)[C@@H](NC(=O)c4ccccc4)c4ccccc4)C(C)=C1C3(C)C)[C@]1(OC(C)=O)CO[C@@H]1C[C@@H]2O [paclitaxel]
solubility: 20 µg/mL (≈ 23.4 µM)
